Patent publication US11371077B2, “High throughput cell-based screening for aptamers” (MeiraGTx UK II Limited, priority 2016, dated 2022)
Counter-ions that a name gives are not always drawn. Like-named read-outs stand apart in the source and are kept apart here. Where a SMILES comes first, the peptide text is derived from it. [ ]: non-standard residue; d: D form. The star is where a group is joined. Sta = CC(C)C[C@H](N)[C@@H](O)CC(=O)O; Isovaleryl = CC(C)CC(=O)*

Legend:
Format in all cases: cell-based
gdg6-A8 riboswitch = test: Luciferase reporter assay, gdg6-A8 riboswitch, transfected HEK 293 cells; conditions: for fold induction at 100 µM: Homo sapiens, HEK293, gdg6-A8 riboswitch, Prestwick library compounds at 100 μM, HEK 293; for Fold Induction of luciferase activity: 100 µM
Source text: (§1) Riboswitches were constructed as described in PCT/US2016/016234 (in particular Examples 3 to 6), incorporated herein by reference. A truncated human beta-globin intron sequence was synthesized and inserted in the coding sequence of a firefly luciferase gene. A mutant human DHFR exon 2 was synthesized and inserted in the middle of this truncated beta-globin intron sequence using Golden gate cloning strategy. Aptamers including xpt-G/A^1, ydhl-G/A^2, yxj^3, add^4, gdg6-G/A^5 (citations for the aptamers are incorporated herein by reference) were synthesized as oligonucleotides (“oligos”) with 4 nucleotide overhang at the 5′ end that are complementary to two different BsaI sites individually (IDT), annealed and ligated to BsaI-digested mDHFR-Luci-acceptor vector.
(§2) 3.5×10^4 HEK 293 cells were plated in a 96-well flat bottom plate the day before transfection. Plasmid DNA (500 ng) was added to a tube or a 96-well U-bottom plate. Separately, TransIT-293 reagent (Mirus; 1.4 μL) was added to 50 μL Opti-mem I media (Life Technologies), and allowed to sit for 5 minutes at room temperature (RT). Then, 50 μL of this diluted transfection reagent was added to the DNA, mixed, and incubated at RT for 20 min. Finally, 7 μL of this solution was added to a well of cells in the 96-well plate.
(§3) 24 hours after media change, plates were removed from the incubator, and equilibrated to RT for several minutes on a lab bench, then aspirated. Glo-lysis buffer (Promega, 100 μL, RT) was added, and the plates maintained at RT for at least 5 minutes. Then, the well contents were mixed by 50 μL trituration, and 20 μL of each sample was mixed with 20 μL of bright-glo reagent (Promega) that had been diluted to 10% in glo-lysis buffer. 96 wells were spaced on an opaque white 384-well plate. Following a 5 min incubation at RT, luminescence was measured using a Tecan machine with 500 mSec read time. The luciferase activity was expressed as mean relative light unit (RLU)±S.D., and fold induction was calculated as the luciferase activity obtained with guanine treatment divided by luciferase activity obtained without guanine treatment.

xpt-A8 riboswitch = test: cells; conditions: Homo sapiens, HEK293; xpt-A8 riboswitch; Prestwick library compounds at 100 μM; HEK 293; read-out: Fold Induction of luciferase activity
Source text: as §1, §2, §3

add-A6 riboswitch = test: cells; conditions: add-A6 riboswitch, Prestwick library compounds at 100 μM, HEK 293; for fold induction at 100 µM: Homo sapiens, HEK293, read-out: Fold Induction of luciferase activity
Source text: as §1, §2, §3

ydhl-G8 riboswitch = test: Luciferase reporter assay, ydhl-G8 riboswitch, transfected HEK 293 cells; conditions: for Fold Induction of luciferase activity: ydhl-G8 riboswitch, Prestwick library compounds at 100 μM, HEK 293
Source text: (§4) A truncated human beta-globin intron sequence was synthesized and inserted in the coding sequence of a firefly luciferase gene. A mutant human DHFR exon 2 was synthesized and inserted in the middle of this truncated beta-globin intron sequence using Golden gate cloning strategy. Aptamers including xpt-G/A^1, ydhl-G/A^2, yxj^3, add^4, gdg6-G/A^5 (citations for the aptamers are incorporated herein by reference) were synthesized as oligonucleotides (“oligos”) with 4 nucleotide overhang at the 5′ end that are complementary to two different BsaI sites individually (IDT), annealed and ligated to BsaI-digested mDHFR-Luci-acceptor vector.
as §2, with “Separately, TransIT-293 reagent (Mirus; 1.4 μL) was added to 50 μL Opti-mem I media (Life Technologies), and allowed to sit for 5 minutes at room temperature (RT).” left out
as §3

yxj-A6 riboswitch = test: cells; conditions: yxj-A6 riboswitch, Prestwick library compounds at 100 μM, HEK 293; for fold induction at 100 µM: Homo sapiens, HEK293, read-out: Fold Induction of luciferase activity
Source text: as §4, §2
as §3, with “The luciferase activity was expressed as mean relative light unit (RLU)±S.D., and fold induction was calculated as the luciferase activity obtained with guanine treatment divided by luciferase activity obtained without guanine treatment.” left out

gdg6-G8 riboswitch = test: Luciferase reporter assay, gdg6-G8 riboswitch, transfected HEK 293 cells; conditions: for fold induction at 100 µM: Homo sapiens, HEK293, gdg6-G8 riboswitch, Prestwick library compounds at 100 μM, HEK 293; for Fold Induction of luciferase activity: 100 µM
Source text: as §1, §2, §3

add-G6 riboswitch = test: cells; conditions: add-G6 riboswitch, Prestwick library compounds at 100 μM, HEK 293; for fold induction at 100 µM: Homo sapiens, HEK293, read-out: Fold Induction of luciferase activity
Source text: as §4
as §2, with “Separately, TransIT-293 reagent (Mirus; 1.4 μL) was added to 50 μL Opti-mem I media (Life Technologies), and allowed to sit for 5 minutes at room temperature (RT).” left out
as §3, with “The luciferase activity was expressed as mean relative light unit (RLU)±S.D., and fold induction was calculated as the luciferase activity obtained with guanine treatment divided by luciferase activity obtained without guanine treatment.” left out

ydhl-A6 riboswitch = test: Luciferase reporter assay, ydhl-A6 riboswitch, transfected HEK 293 cells; conditions: for fold induction at 100 µM: Homo sapiens
Source text: as §4
as §2, with “Separately, TransIT-293 reagent (Mirus; 1.4 μL) was added to 50 μL Opti-mem I media (Life Technologies), and allowed to sit for 5 minutes at room temperature (RT).” left out
as §3

xpt-G17 riboswitch = test: Luciferase reporter assay, xpt-G17 riboswitch, transfected HEK 293 cells; conditions: Prestwick library compounds at 100 μM, HEK 293, preliminary screen; for Fold Induction of luciferase activity: xpt-G17 riboswitch
Source text: as §4, §2, §3

[1] = HEK293, read-out: Fold Induction of luciferase activity
[2] = HEK293, read-out: Fold Induction of luciferase activity, ydhl-A6 riboswitch, Prestwick library compounds at 100 μM, HEK 293

S=c1nc[nH]c2nc[nH]c12 [Mercaptopurine]
fold induction at 100 µM (gdg6-A8 riboswitch): 17.2 | fold induction at 100 µM (xpt-A8 riboswitch): 3.4 | fold induction at 100 µM (add-A6 riboswitch): 15 | fold induction at 100 µM (ydhl-G8 riboswitch; Homo sapiens, HEK293, read-out: Fold Induction of luciferase activity): 3.6 | fold induction at 100 µM (yxj-A6 riboswitch): 10 | fold induction at 100 µM (gdg6-G8 riboswitch): 16.2 | fold induction at 100 µM (add-G6 riboswitch): 14.3

CC[C@]12CCCN3CCc4c(n(c5ccccc45)[C@@](O)(C(=O)OC)C1)[C@@H]32 [Vincamine]
fold induction at 100 µM (ydhl-A6 riboswitch; [1]): 3.3

OCCN1CCN(CCCN2c3ccccc3C=Cc3ccccc32)CC1 [Opipramol dihydrochloride]
fold induction at 100 µM (gdg6-A8 riboswitch): 3.1 | fold induction at 100 µM (add-A6 riboswitch): 4.3

Clc1ccccc1CN1CCc2sccc2C1 [Ticlopidine hydrochloride]
fold induction at 100 µM (ydhl-A6 riboswitch; HEK293, ydhl-A6 riboswitch, Prestwick library compounds at 100 μM, HEK 293, read-out: Fold Induction of luciferase activity): 3.1

Cn1cnc([N+](=O)[O-])c1Sc1ncnc2nc[nH]c12 [Azathioprine]
fold induction at 100 µM (gdg6-A8 riboswitch): 19.9 | fold induction at 100 µM (xpt-G17 riboswitch; Homo sapiens, HEK293, xpt-G17 riboswitch): 6.2 | fold induction at 100 µM (xpt-A8 riboswitch): 5.9 | fold induction at 100 µM (add-A6 riboswitch): 6.5 | fold induction at 100 µM (yxj-A6 riboswitch): 6.6 | fold induction at 100 µM (gdg6-G8 riboswitch): 16.2 | fold induction at 100 µM (add-G6 riboswitch): 11.4

CC(=O)c1ccc2c(c1)N(CCCN(C)C)c1ccccc1S2.O=C(O)/C=C\C(=O)O [Acetopromazine maleate salt]
Fold Induction of luciferase activity (gdg6-A8 riboswitch): 8.6 fold | Fold Induction of luciferase activity (xpt-G17 riboswitch): 4.5 fold | Fold Induction of luciferase activity (add-A6 riboswitch): 3.5 fold | Fold Induction of luciferase activity (ydhl-G8 riboswitch): 3.9 fold | Fold Induction of luciferase activity (yxj-A6 riboswitch): 3.1 fold | Fold Induction of luciferase activity (gdg6-G8 riboswitch): 3.2 fold | Fold Induction of luciferase activity (add-G6 riboswitch): 5.0 fold

Trimipramine maleate salt
Fold Induction of luciferase activity (gdg6-A8 riboswitch): 5.3 fold | Fold Induction of luciferase activity (add-A6 riboswitch): 3.4 fold | Fold Induction of luciferase activity (yxj-A6 riboswitch): 3.3 fold | Fold Induction of luciferase activity (gdg6-G8 riboswitch): 3.3 fold | Fold Induction of luciferase activity (add-G6 riboswitch): 3.4 fold

Nc1ccc(S(=O)(=O)Nc2cnc3ccccc3n2)cc1 [Sulfaquinoxaline sodium]
fold induction at 100 µM (add-A6 riboswitch): 3.3 | fold induction at 100 µM (yxj-A6 riboswitch): 3.4

O=C(O)CCc1nc(-c2ccccc2)c(-c2ccccc2)o1 [Oxaprozin]
fold induction at 100 µM (ydhl-A6 riboswitch; [2]): 3.4

Trimeprazine tartrate
Fold Induction of luciferase activity (gdg6-A8 riboswitch): 8.7 fold | Fold Induction of luciferase activity (xpt-G17 riboswitch): 4.9 fold | Fold Induction of luciferase activity (add-A6 riboswitch): 4.0 fold | Fold Induction of luciferase activity (ydhl-G8 riboswitch): 5.0 fold | Fold Induction of luciferase activity (yxj-A6 riboswitch): 7.0 fold | Fold Induction of luciferase activity (gdg6-G8 riboswitch): 6.2 fold | Fold Induction of luciferase activity (add-G6 riboswitch): 6.2 fold

CCN1CCCC(OC(=O)C(c2ccccc2)c2ccccc2)C1 (stereo not shown) [Piperidolate hydrochloride]
fold induction at 100 µM (ydhl-A6 riboswitch; [1]): 3.4

CNC1(C)C2CCC(C2)C1(C)C (stereo not shown) [Mecamylamine hydrochloride]
fold induction at 100 µM (ydhl-A6 riboswitch; [2]): 3.2

CC(C)CC(=O)N[C@H](C(=O)N[C@H](C(=O)N[C@@H](CC(C)C)[C@@H](O)CC(=O)N[C@@H](C)C(=O)N[C@@H](CC(C)C)[C@@H](O)CC(=O)O)C(C)C)C(C)C [Pepstatin A] (Isovaleryl-VV[Sta]A[Sta]-OH)
Fold Induction of luciferase activity (ydhl-A6 riboswitch; ydhl-A6 riboswitch, Prestwick library compounds at 100 μM, HEK 293): 4.0 fold
